Source: patent US9993424B2, “Intravaginal matrix drug delivery devices” (Allergan Pharmaceuticals International Limited, priority 2002, dated 2018)
Values after ≈ are worked out from the molar mass of the structure shown.

test: Solubility in silicone oil at 25° C.; conditions: oil or lipid

Row | SMILES | solubility
1 | Nc1nc2c(ncn2COCCO)c(=O)[nH]1 [acyclovir] | < 80 µg/mL
2 | Cc1ncc([N+](=O)[O-])n1CCO [metronidazole] | 6 µg/mL (≈ 35.1 µM)
3 | CC(C)N1CCN(c2ccc(OCC3COC(Cn4cncn4)(c4ccc(Cl)cc4Cl)O3)cc2)CC1 (stereo not shown) [terconazole] | 200 µg/mL (≈ 376 µM)
4 | C[C@]12CC[C@H]3[C@@H](CCC4=CC(=O)CC[C@@]43C)[C@@H]1CC[C@@H]2O [testosterone] | 140 µg/mL (≈ 485 µM)
